Reference: patent US7183300B2, “Inhibitors of HIV-1 capsid formation: substituted aryl aminomethyl thiazole ureas and analogues thereof” (priority 2004, dated 2007)

What was measured:
CA = CA (Human immunodeficiency virus type 1 group M subtype B, UniProt P12493); assay: mass action calculation of CAP-1 bound to CA/Gag in immature virions; parameters: species or system HIV-1
Procedure: This is likely due to the high local concentration of Gag molecules in assembled virions (14 mM), which favors binding by ligands with even modest affinities, e.g., N-(3-chloro-4-methylphenyl)-N′-[2-[([5-[(dimethylamino)-methyl]-2-furyl]-methyl)-sulfanyl]ethyl]urea (CAP-1).
Thus conservatively assuming that cytosolic drug concentrations in the budding virus and cells are equal (100 μM), the percentage of viral CAP-1 molecules bound to CA can be estimated by standard mass action calculations which affords a value for the concentration of bound CAP-1 ([CA:CAP-1]) of 94 μM.

HIV-1 capsid protein = target: T1, HIV-1 capsid protein (Human immunodeficiency virus type 1 group M subtype B, UniProt P12493); assay: biochemical; type: binding
T1 construct: aqueous solutions containing recombinant, ^15N-labeled HIV-1 capsid protein
Procedure: Capsid protein ligands are also evaluated by NMR to determine their equilibrium dissociation constant from the capsid binding site.
Concentrated DMSO-d6 solutions of test compounds are prepared for NMR analysis. 2D ^1H-^15N HSQC NMR spectra are obtained for aqueous solutions containing recombinant, ^15N-labeled HIV-1 capsid protein and 10 microliters of added test compound. Data is obtained using a 600 MHz NMR instrument equipped with a cryoprobe. […] Binding is indicated by perturbation relative to capsid protein alone (^1HN δδ>0.1 ppm; ^15N δδ>0.5 ppm) of the chemical shifts of the following residues: Glu29, Lys30, Ala31, Phe32, Ser33, Glu35, Val36, Val59, Gly60, Gly61, His62, Gln63, Ala65, Met144 and Tyr145, all located at or near the apex of a helical bundle (helices 1, 2, 3, 4 and 7).
Equilibrium dissociation constants are calculated from 2D NMR data of selected capsid ligands. […] The chemical shift changes of perturbed by test compound binding are fit to 1:1 binding isotherms.

Structure (SMILES): Cc1ccc(NC(=O)NCCSCc2ccc(CN(C)C)o2)cc1Cl [CAP-1, N-(3-chloro-4-methylphenyl)-N′-[2-[([5-[(dimethylamino)-methyl]-2-furyl]-methyl)-sulfanyl]ethyl]urea]
- CAP-1 molecules in immature virions bound to Gag (CA; 100 μM dose): 94%
- concentration of bound CAP-1 ([CA:CAP-1]) (CA; assuming drug concentration 100 μM, Gag in assembled virions 14 mM): 94 µM
- Kd (HIV-1 capsid protein): 820 ± 180 µM
- binding to the HIV-1 capsid protein (HSQC chemical shift perturbation) (HIV-1 capsid protein; recombinant 15N-labeled HIV-1 capsid protein): site-specific binding
